The values below come from patent US7423159B2, “Agent for preventing or treating neuropathy” (Takeda Pharmaceutical Company Limited, priority 2002, dated 2008).

The term melting point denotes the temperature of the solid-liquid transition.

One data set relates to PC12 cells. Kind of data set: neuroprotective action (neurite network formation) in PC12 cells. In kind it is cell-based. The following applies: test compound 0.3-3.0 μmol/L, two days, DMEM with 0.5% FCS and 2 ng/mL NGF; observed under a microscope. As for the experimental part: Using PC12 cells, the neuroprotective action of the compound of the present invention was evaluated.
PC12 cells were precultured for one day in a DMEM (Dulbecco's Modified Eagle's Medium) culture solution containing 10% FCS (Fetal Calf Serum) in an incubator at 37° C., 5% CO2, and seeded at 5×10^3/well in a 24 well plate (Falcon) in the same medium. After the cells adhered to the bottom surface, the culture was changed to a DMEM culture solution containing 0.5% FCS and 2 ng/mL of NGF (Wako Pure Chemical Industries, Ltd.). After culturing overnight, the test compound was added at a concentration of 0.3-3.0 μmol/L and the cells were cultured for two more days. Gultalaldehyde was added to the cultured to a final concentration of 2% and the cells were fixed for 1 hr., after which stained with a Diff-Quick (International Reagents Corporation). The cells were washed, dried with air and observed under a microscope.

In another data set the test system is rat C6 glioma cells. Briefly: GDNF production promoting action in rat C6 glioma cells (ELISA of culture supernatant). Particulars: Rattus norvegicus, C6 glioma, 48 h; concentration which causes 50% increase of GDNF relative to the control group; cultured 2 days with test compound; GDNF in culture supernatant by ELISA. It counts as cell-based. As for the experimental part:
Using rat C6 glioma cells, the GDNF production promoting action of the compound of the present invention was evaluated.
Rat C6 glioma cells (ATCC) were grown in Dulbecco's Modified Eagle's Medium (DMEM) containing 10% FBS (Fetal Bovine Serum) in a collagen type 1 coated 75 cm^2 culture flask (SUMITOMO BAKELITE Co., Ltd.) until near confluent, detached by trypsin treatment and washed once with DMEM containing 10% FBS.
The cells after washing were diluted with 10% FBS-containing DMEM to a concentration of 5×10^4/mL and seeded at 0.3 mL/well in each well of collagen type 1 coated 48 well culture dish (SUMITOMO BAKELITE Co., Ltd.). After 3 days, the culture in the culture dish was placed in a 1% BSA (bovine serum albumin, Sigma)-containing DMEM medium supplemented with various concentrations of test compound, and further cultured for 2 days. The culture supernatant was recovered and preserved at −80° C. until measurement of GDNF.
The content of GDNF in the culture supernatant was measured by the following ELISA Method.
Anti-GDNF antibody (MAB212, R&D) was diluted with TBS (Tris buffered physiological saline: 25 mmol/L Tris-HCl (pH 8.0), 150 mmol/L NaCl) to 2 μg/mL and dispensed at 0.1 mL/well to each well of a 96-well immunoplate. The 96-well immunoplate was incubated overnight at 4° C. and washed once with TBS containing Tween 20 at 0.05% (hereinafter to be abbreviated as TBST). A blocking solution (TBS containing 1% BSA and 5% sucrose) was added at 0.2 mL/well to each well after washing, and the plate was incubated at room temperature for 1 hr., after which each well was washed twice with TBST. The culture supernatant (0.1 mL) of the aforementioned C6 cells was added to each well after washing and the plate was incubated at room temperature for 3 hrs., after which the wells were washed 5 times with TBST. The 500-fold diluted anti-GDNF antibody (G2791, Promega) was added by 0.1 mL to each well after washing, incubated at room temperature for 2 hrs. and washed 5 times with TBST. A 5000-fold diluted horseradish peroxidase-labeled anti-chicken IgY antibody (G1351, Promega) was added at 0.1 mL/well to each well after washing, incubated at room temperature for 2 hrs. and washed 5 times with TBST. A substrate solution (TMB substrate solution, BIO-RAD) was added at 0.1 mL/well to each well after washing and allowed to develop color at room temperature for 8 min. To stop the reaction, 0.1 mL of 1 mol/L phosphoric acid was added to each well in coloring developing reaction. The absorbance of the reaction solution at 450 nm wavelength was measured.
In the same manner as above except the test compound was not used, the ELISA Method was performed and this was used as a control group.
Using various concentrations of GDNF (Promega), ELISA Method was performed in the same manner as above and standard line was prepared.
From the aforementioned absorbance and standard line, GDNF content in a sample was calculated and the concentration (EC50), which causes 50% increase of GDNF relative to the control group was calculated from the regression line.
In general terms: ELISA stands for enzyme-linked immunosorbent assay.

For `Cn1ncc(/C=C/C(=O)Nc2ccc(Cn3cnc4ccccc43)cc2)c1-c1ccc(F)cc1` [Example 185, (2E)-N-[4-(1H-Benzimidazol-1-ylmethyl)phenyl]-3-[5-(4-fluorophenyl)-1-methyl-1H-pyrazol-4-yl]acrylamide], the melting point lay in the range of 243 to 244 °C. Also, the “formation of neurite network” value in the data set with PC12 cells is recorded as “promoted formation of neurite network”. In the data set on rat C6 glioma cells, this molecule gave an EC50 of 0.3 µM.

`Cn1ncc(/C=C/C(=O)Nc2ccc(CN3CCOCC3)cc2)c1-c1ccc(F)cc1` [Example 192, (2E)-3-[5-(4-Fluorophenyl)-1-methyl-1H-pyrazol-4-yl]-N-[4-(4-morpholinylmethyl)phenyl]acrylamide]: the melting point was 202 to 203 °C. In addition, in the data set with PC12 cells, the “formation of neurite network” value is on record as “promoted formation of neurite network”. Further, the EC50 in the data set with rat C6 glioma cells is 0.54 µM.

Regarding `Cn1ncc(/C=C/C(=O)Nc2ccc(Cn3ccnc3)cc2)c1-c1ccc(F)cc1` [Example 159, (2E)-3-[5-(4-fluorophenyl)-1-methyl-1H-pyrazol-4-yl]-N-[4-(1H-imidazol-1-ylmethyl)phenyl]acrylamide], the melting point was 213 to 214 °C. Also, the “formation of neurite network” value with PC12 cells is listed as “promoted formation of neurite network”. Besides, the EC50 with rat C6 glioma cells was determined as 0.12 µM.

Regarding `Cn1ncc(/C=C/C(=O)Nc2ccc(C(O)c3ccccn3)cc2)c1-c1ccc(F)cc1` (stereo not drawn) [Example 49, (2E)-3-[5-(4-Fluorophenyl)-1-methyl-1H-pyrazol-4-yl]-N-{4-[hydroxy(2-pyridinyl)methyl]phenyl}acrylamide], in the data set on PC12 cells, the “formation of neurite network” value is listed as “promoted formation of neurite network”. In the data set with rat C6 glioma cells, this molecule gave an EC50 of 1.6 µM.

On to `CCS(=O)(=O)Cc1ccc(NC(=O)/C=C/c2cnn(C)c2-c2ccc(F)cc2)cc1` [Example 223, (2E)-N-{4-[(Ethylsulfonyl)methyl]phenyl}-3-[5-(4-fluorophenyl)-1-methyl-1H-pyrazol-4-yl]acrylamide], for which the melting point lay within 257 to 258 °C. The “formation of neurite network” value with PC12 cells was “promoted formation of neurite network”. The molecule further had an EC50 in the data set with rat C6 glioma cells of 0.036 µM.

For `Cn1ncc(/C=C/C(=O)Nc2ccc(CC3SC(=O)NC3=O)cc2)c1-c1ccc(F)cc1` (stereo not drawn) [Example 60, (2E)-N-{4-[(2,4-Dioxo-1,3-thiazolidin-5-yl)methyl]phenyl}-3-[5-(4-fluorophenyl)-1-methyl-1H-pyrazol-4-yl]acrylamide], the melting point lay in the range of 149 to 150 °C. Besides, the “formation of neurite network” value in the data set with PC12 cells is listed as “promoted formation of neurite network”. This molecule had an EC50 in the data set with rat C6 glioma cells of 0.8 µM.

`CCOP(=O)(Cc1ccc(NC(=O)/C=C/c2cnn(C)c2-c2cccs2)cc1)OCC` [Example 149, Diethyl [4-({(2E)-3-[1-methyl-5-(2-thienyl)-1H-pyrazol-4-yl]prop-2-enoyl}amino)benzyl]phosphonate] showed a melting point of 262 to 263 °C. In addition, the “formation of neurite network” value in the data set on PC12 cells is given as “promoted formation of neurite network”. This molecule also came in with an EC50 with rat C6 glioma cells of 0.51 µM.

The molecule `Cn1ncc(/C=C/C(=O)Nc2ccc(Cn3cccn3)cc2)c1-c1ccc(F)cc1` [Example 161, (2E)-3-[5-(4-Fluorophenyl)-1-methyl-1H-pyrazol-4-yl]-N-[4-(1H-pyrazol-1-ylmethyl)phenyl]acrylamide] showed a melting point of 189 to 191 °C. In the data set on PC12 cells, the “formation of neurite network” value was “promoted formation of neurite network”. The same molecule yielded an EC50 in the data set on rat C6 glioma cells of 0.13 µM.

Turning to `CCOP(=O)(Cc1ccc(NC(=O)/C=C/c2cnn(C)c2-c2ccc(F)cc2)cc1)OCC` [Example 2, (2E)-N-[4-(Diethylphosphonomethyl)phenyl]-3-[5-(4-fluorophenyl)-1-methyl-1H-pyrazol-4-yl]acrylamide], in the data set with PC12 cells, the “formation of neurite network” value is reported as “promoted formation of neurite network”. In the data set with rat C6 glioma cells, the EC50 worked out at 0.4 µM.

On to `Cn1ncc(/C=C/C(=O)Nc2ccc(CS(C)(=O)=O)cc2)c1-c1ccc(F)cc1` [Example 222, (2E)-3-[5-(4-fluorophenyl)-1-methyl-1H-pyrazol-4-yl]-N-(4-[(methylsulfonyl)methyl]phenyl)acrylamide], for which the melting point fell in the range of 251 to 252 °C. For the same molecule, the “formation of neurite network” value with PC12 cells is reported as “promoted formation of neurite network”. For the same molecule, in the data set with rat C6 glioma cells, the EC50 was 0.12 µM.

For `CN1C(=O)SC(Cc2ccc(NC(=O)/C=C/c3cnn(C)c3-c3ccc(F)cc3)cc2)C1=O` (stereo not drawn) [Example 110, (2E)-3-[5-(4-Fluorophenyl)-1-methyl-1H-pyrazol-4-yl]-N-{4-[(3-methyl-2,4-dioxo-1,3-thiazolidin-5-yl)methyl]phenyl}acrylamide], the melting point lay in the range of 228 to 229 °C. Besides, in the data set with PC12 cells, the “formation of neurite network” value is “promoted formation of neurite network”. Further, the EC50 in the data set on rat C6 glioma cells came to 0.31 µM.

Molecule `CC(=O)Cc1ccc(NC(=O)/C=C/c2cnn(C)c2-c2ccc(F)cc2)cc1` [Example 121, (2E)-3-[5-(4-Fluorophenyl)-1-methyl-1H-pyrazol-4-yl]-N-[4-(2-oxopropyl)phenyl]acrylamide] showed a melting point of 186 to 187 °C. The same molecule registered an EC50 with rat C6 glioma cells of 0.18 µM.
